Laboratory results reported in patent US12338263B2, “Antibacterial aminoglycoside derivatives” (priority 2019, dated 2025).

What was measured:
HK-2 cells = assay: Toxicity test on HK-2 cells (Alma Blue); type: cell-based
Procedure: (§1) On the day of the experiment, when the HK-2 cells in the culture flask reached 80%-90% confluent, the culture medium was discarded, the cells were washed twice with Dulbecco's phosphate buffered saline (DPBS) and digested for 1 to 2 minutes with 3 mL trypsin (T150 cell culture flask), and immediately 9 ml complete medium (RPMI1640+10% FBS) were added to terminate the digestion. After termination, single cells suspension were formed by pipetting gently, which were centrifuged at 1000 […] for 5 minutes. The supernatant was discarded, and fresh complete medium were added, and the cells were pipetted evenly. The actual cell density was measured according to the cell counter and the cell suspension was adjusted to 2.5×10^5 cells/mL. 80 μL of cell suspension was drawn by a row pipettor and added into a 96-well black bottom plate (2×10^4 cell/well), and then incubated in a carbon dioxide incubator for 4.5 hours, which was defined as a cell plate.
(§2) • a. The compound mother liquor was prepared according to the following table, with complete medium as the solvent;
(§3) • b. 50 microliters of complete medium was added into columns 3-11 in the 96-v well plate; • c. 75 microliters of test compound (50 mg/mL) and positive control were added to the second column of the 96-v well plate; • d. 25 microliters of compound was drawn from the second column and added into the third column, blown and sucked a few times by a row pipettor, then 25 microliters of liquid was drawn from the third column and added to the fourth column, and subsequently subjected to a 3-fold series dilution until the 10th column. From column 2 to column 11, the compound concentration was 50, 16.67, 5.56, 1.85, 0.62, 0.21, 0.07, 0.02, 0.008, 0 mg/mL; • e. 20 μL compound solutions of various concentrations prepared were transferred by a row pipettor to the corresponding wells of the cell plate, which was defined as a testing plate. Culture of the Testing Plate:
(§4) All the plates were incubated in an incubator at 37° C., 5% CO2 for 43 hours.
(§5) After incubation, 10 microliters of Alma Blue was added to the testing plate. The testing plate was immediately incubated in an incubator at 37° C., 5% CO2 for 3 hours. Then the fluorescence value of each well of the testing plate was read by a microplate reader (wavelength Ex 540 nm/Em 585 nm). Then prism software was used to simulate the curve to calculate CC50 value.

[1] = Toxicity test on HK-2 cells (Alma Blue); type: cell-based; details: human, 43 hours incubation plus 3 hours Alma Blue, read-out: CC50 of HK-2 cell
Procedure: as §1, §2, §3, §4, §5

[2] = Study on pharmacokinetics in mice; type: in vivo, CD-1 mice; details: mouse, plasma, CD-1 male mice, 1 mg/kg single intravenous injection
Procedure: CD-1 male mice aged 7 to 10 weeks were selected and treated by intravenous administration at the dose of 1 mg/kg. The mice were fasted for at least 12 hours before the administration, and resumed feeding 4 hours after the administration. The mice were free to drink during the entire experiment.
On the day of the experiment, the animals in the intravenous group were administered with corresponding compound by a single injection via tail vein with an administration volume of 5 mL/kg. The animals were weighed before the administration, and the administration volume was calculated based on the body weight. The sample collection time was: 0.083, 0.25, 0.5, 1, 2, 4, 8, and 24 h. Approximately 30 μL whole blood was collected through the saphenous vein at each time point to prepare plasma for high performance liquid chromatography-tandem mass spectrometry (LC-MS/MS) to determine the concentration.
All animals were subjected to euthanasia under CO2 anesthesia after the PK samples at the last time point were collected. The non-compartmental model of the pharmacokinetic software WinNonlin™ Version 6.3 (Pharsight, Mountain View, CA) was used to process the data of plasma concentration, and the linear log-trapezoidal method was used to calculate the pharmacokinetic parameters.

For `CN[C@@H]1[C@@H](O)[C@@H](O[C@@H]2[C@@H](O)[C@H](O[C@H]3OC(CNCCOCCONC(=N)N)=CC[C@H]3N)[C@@H](N)C[C@H]2NC(=O)[C@@H](O)CCN)OC[C@]1(C)O` [Compound 1], which “toxicity to HK-2 cells compared with Netilmicin and Amikacin” value (HK-2 cells) is on record?
Its value is “significantly lower than that of Netilmicin and Amikacin”.

What about the Maximum inhibition rate (HK-2 cells; 43 hours incubation plus 3 hours Alma Blue) of the same compound?
Its Maximum inhibition rate is 21.96%.

What about the “toxicity to HK-2 cells compared with Plazomicin” value (HK-2 cells; toxicity regression curve and software prediction (FIG. 8-11)) of the same compound?
The value was “lower than Plazomicin”.

And the CC50 at 43 h [1]?
The CC50 at 43 h was > 10000 µg/mL.

What about the AUC ([2]; read-out: Area Under the Curve AUC) of the same compound?
The AUC was 1.92 µM·h.

And the clearance ([2]; read-out: Clearance Rate Cl)?
Its clearance is 15.1 mL/min/kg.

What about the half-life ([2]; read-out: Half-Life T1/2 (converted)) of the same compound?
The half-life was 23.8 min.

And the Cmax ([2]; read-out: Maximum Concentration Cmax)?
Its Cmax is 7.09 µM.

What about the Vd ([2]; read-out: Volume of Distribution Vd) of the same compound?
The Vd was 0.369 L/kg.
